Assay results reported in paper PMC3302888, “Small-Animal PET Imaging of Amyloid-Beta Plaques with [^11C]PiB and Its Multi-Modal Validation in an APP/PS1 Mouse Model of Alzheimer's Disease” (PLoS ONE, 2012).
Where “and” joins values, the source holds several entries; their conditions need not be identical. Identical values can stand only once. Like-named read-outs stand apart in the source and are kept apart here.

Experiments:
Aβ plaques = experiment: Small-animal PET of mouse brain with [^11C]PiB, cerebellum as reference region; assay type: in vivo; conditions: for BPND (MRTM2, Ichise et al., 2003) mean ± SD: neocortex target, cerebellum reference; for PET BPND neocortex: [^3H]PiB/[^11C]PiB cocktail, 30 min scan
Description: Most of the small-animal PET data was acquired with a microPET FOCUS F120 scanner (Siemens Medical Solutions, Malvern, USA). In the combined multi-modal experiment PET data for the four animals was acquired with a docked Siemens Inveon PET/CT system (Siemens Medical Solutions, Knoxville, USA), [66], [67].
After induction of anesthesia and placement of the catheter systems, the animals were placed with their heads in the center of the field of view and were fixed in the scanner in prone head first position (HFP). At the beginning of the PET scanning procedure, a 9 min transmission scan (^68Ge rod source, Focus F120) or CT scan (Inveon) was performed in all animals.
[^11C]PiB was given via the catheter system intravenously in a slow bolus, followed by flushing with isotonic saline solution such that the total applied volume was 0.22±0.06 ml. The amount of injected activity was controlled real-time with registered prompts such that they ranged between 150000 to 200000 at the end of [^11C]PiB application, ensuring a dead time <5% at 30 min p.i.. The radioactivity in the syringe was measured immediately before and after injection with a Capintec CRC 15R (Capintec Inc, NJ, USA) dose calibrator. The time between measurements was 2 to 3 min.
Dynamic data acquisition was performed in 3D listmode for 30 or 60 min starting immediately with injection of the tracer. The emission data were normalized and corrected for decay and dead time. The resulting sinograms were reconstructed with FBP (filtered back-projection using a ramp filter with a cut-off at the Nyquist frequency) into 2, 3, 6, 12, 60 and 120 frames of equal length used for motion correction, ratio measurements and image production and 52 frames (24×10 s, 12×30 s, 10×120 s, 6×300 s) and 162 frames (120×1 s, 24×10 s, 8×30 s, 10×300 s) for time-activity-curve (TAC) generation. The image volume consisted of 128×128×95 voxels, with a size of 0.866×0.866×0.796 mm^3 per voxel for the Focus F120 scanner and 128×128×159 voxels, with a size of 0.776×0.776×0.796 mm^3 per voxel for the Inveon scanner.
To assess varying PiB retention of individual animals within the study collective and to verify the consistency of results, three quantification methods were used similar to Maeada et al.. First, [^11C]PiB uptake in the target region was divided by [^11C]PiB uptake in the cerebellum as measured in a static 10 min-frame (20–30 min). Second, the tissue ratio methods as proposed by Ito et al. were calculated. Third, the multilinear reference tissue model 2 (MRTM2, [45]) was fitted to cortex time-activity curves (TACs) (merged neocortex) after reduction of parameters by estimating individual efflux rate constants for [^11C]PiB from the reference region (k2′) with the MRTM [45] and four regional cortical time-activity curves.
Parametric images of [^11C]PiB retention (BPND maps (MRTM2)) were generated for four representative mice (Figure 2 and S1). For all analyses, the cerebellum was used as the reference region. To quantify the dynamic data, TACs with high initial time resolution (162 frames: 120×1 s, 24×10 s, 8×30 s, 10×300 s) were used (Figure 1).
Then, the radioactivity of the whole animal was measured in a Capintec dose calibrator, the animal killed by decapitation, the whole brain taken out and blood drawn for biodistribution and radioactivity measurement. One half of the brain was dissected for regional brain biodistribution (olfactory system, telencephalon, cerebellum and remaining brain structures (diencephalon, midbrain)) and deep-frozen immediately after gamma counting for later ELISA analysis of soluble and insoluble Aβx–40 and Aβx–42. […]

human brain = test system: human brain; parameters: method as in PMID 16291932; conditions: humans; cited from earlier work
APP/PS1 mouse brain = test system: APP/PS1 mouse brain; parameters: method as in PMID 16291932; conditions: very old hemizygous APP/PS1 animals; classical Scatchard analysis; cited from earlier work
[1] = test system: postmortem human brain tissue homogenate (temporal cortex); experiment: Radioligand saturation binding assay with [^3H]PiB, human brain homogenate
Procedure: (§1) The frozen mouse hemi-forebrains (50 mg/ml) and human brain samples (100 mg/ml) for the radioligand binding assay were first prepared in tissue homogenization buffer (20 mM Tris base, 1 mM EDTA, 1 mM EGTA, cOmplete Protease Inhibitor Cocktail (Roche Applied Science, Mannheim, Germany)) using a 30 ml hand glass homogenizer (Dounce type, tight fit) (Sartorius Stedim Biotech, Göttingen, Germany) which was used for subsequent ELISA analysis. The stocks were then supplemented with 250 mM sucrose and stored at −70°C for later tracer binding analysis. All other tissue samples were processed for ELISA as reported by Willuweit et al.
(§2) All brain homogenates were diluted in PBE buffer (10 mM dibasic sodium phosphate, 1 mM EDTA, 10% EtOH) to a final concentration of 1000 µg/ml. Synthetic human Aβ1–40 fibrils (EZBioLab, Carmel, IN, USA) were prepared as described by Lockhart et al. (0.5 mg/ml, pH 7.4, 200 rpm at 37°C for 48 h) and were used as positive control at a final concentration of 10 µg/ml (Figure S8).
(§3) Nonspecific binding was determined in the presence of 3 µM unlabeled PiB (ABX, Radeberg, Germany) including 1 h preincubation. Each tissue sample was deployed on two 96-well cell culture plates (Greiner Bio-One, Frickenhausen, Germany) to a final reaction volume of 280 µl per well using 8-channel electronic pipettes (Mettler Toledo, Giessen, Germany) giving 24 octuples of data points per sample.
(§4) The bound and free fractions were seperated by vacuum filtration through 0.3% polyethyleneimine-pretreated GF/B glass filtermats (GE Healthcare/Whatman, Dassel, Germany) using a semi-automated Harvester 96 Mach II M (Tomtec, Hamden, CT, USA). A constant automated 5-cycle pulse-wash program (optimized for flow rate and volume) guaranteed stable harvesting with 1.2 ml PBE washing per well at 2 psi.
(§5) Filters were cut and incubated in Aquasafe300plus scintillator (Zinsser Analytic, Frankfurt, Germany) for 36 h before counting in a Wallac WinSpectral 1414 liquid scintillation counter (PerkinElmer, Rodgau, Germany).
(§6) The specific binding signal under these assay conditions was between 56% (human) and 91% (synthetic protein). Data were analyzed using GraphPad Prism version 5.0 d for Mac (GraphPad Software, La Jolla, CA, USA) to estimate the apparent dissociation constant (Kd), the maximal number of binding sites (Bmax) and the in vitro binding potential (BP) using the one-site and two-site global analysis models.
(§7) Division by Kd in nanomolar units directly results in BP.

[2] = test system: mouse brain tissue homogenate (APP/PS1 hemi-forebrain); experiment: Radioligand saturation binding assay with [^3H]PiB, mouse brain homogenate
Procedure: as §1, §2, §3, §4, §5, §6, §7

[11CH3]Nc1ccc(-c2nc3ccc(O)cc3s2)cc1 [[^11C]PiB, N-[^11C-methyl]-6-OH-BTA-1]
BPND (MRTM2, Ichise et al., 2003) mean ± SD (Aβ plaques; ctl-old (N = 5)): -0.08 ± 0.01 | PET BPND neocortex (Aβ plaques; individual animals AD1, AD2 (tgtg-young, 9 months)): 0.06 | PET BPND neocortex (Aβ plaques; individual animals CTL1, CTL2 (ctl-young)): −0.06 and −0.07 | BPND (MRTM2, Ichise et al., 2003) mean ± SD (Aβ plaques; tg-old (N = 5)): 0.28 ± 0.06 | BPND (MRTM2, Ichise et al., 2003) mean ± SD (Aβ plaques; tgtg-old (N = 7)): 0.51 ± 0.13 | BPND (MRTM2, Ichise et al., 2003) mean ± SD (Aβ plaques; tgtg-young (N = 5)): 0.12 ± 0.04

CNc1ccc(-c2nc3ccc(O)cc3s2)cc1 [[^3H]PiB]
BP of high-affinity binding sites (human brain): 636 | BP of the high-affinity component (APP/PS1 mouse brain): 78 | in vitro binding potential (BP) ([1]; huAD-0 (mild human AD, Cerad-0, Braak II), single binding site model): ~0 | in vitro binding potential (BP) ([1]; huAD-C (severe human AD, Cerad-C, Braak V), single binding site model): 38 and 38.2±4.7 and 38.2 | tracer concentration at which saturation binding was reached ([1]; huAD-C homogenate): around 8 nM | Bmax ([1]; huAD-C homogenate, single binding site model): 200 ± 12 fmol/mg | Kd ([1]; huAD-C homogenate, single binding site model, read-out: Kd): 5.2 ± 0.9 nM | Bmax of the high-affinity component ([1]; huAD-C, two site binding model): 156.7 ± 7.3 fmol/mg | Kd ([1]; huAD-C, two site binding model, read-out: Kd of the high-affinity component): 3.4 ± 1.4 nM | in vitro binding potential (BP) ([1]; huCTL (human control brain, Cerad-0, Braak I), single binding site model): ~0 | in vitro binding potential (BP) ([2]; mouse control brain (msCTL), total binding not different to nonspecific binding): ~0 | in vitro binding potential (BP) ([2]; tg-old mouse brain tissue, single binding site model): 11.9±0.9 and 11.9 | in vitro binding potential (BP) ([2]; tgtg-old mouse brain tissue, single binding site model): 69 and 69.2±2.7 and 69.2 | Bmax of the high-affinity component ([2]; tgtg-old tissue, two site binding model): 289.3 ± 123.9 fmol/mg | Kd ([2]; tgtg-old tissue, two site binding model, read-out: Kd of the high-affinity component): 5.7 ± 4.1 nM | in vitro binding potential (BP) ([2]; tgtg-young mouse brain tissue, single binding site model): 14.3±0.9 and 14.3
